Patent publication EP0286364B1, “Substituted Di-t-Butylphenols” (RIKER LABORATORIES, INC., priority 1987, dated 1988)

System: male Hartley strain guinea pigs
Test: Konzett-Rossler in vivo test, antigen challenge of sensitized guinea pigs
Details: dosed orally, about 5 to 40 mg/kg, suspension in 4% aqueous acacia; ovalbumin 300 µg/kg intravenously 30 minutes later; bronchoconstrictor response
Method: The oral activity of compounds of Formula I may be demonsrated using the Konzett-Rossler in vivo test method. The activity is determined according to the procedure which follows. The Konzett-Rossler technique (H.Konzett and R. Rossler, Naunyn-Schmiedbergs Arch. Pharmakol., 195, 71-74, 1940 is used to assess the effect of compounds of Formula I of the invention on antigen challenge of male Hartley strain guinea pigs (350-500g). Fourteen days after sensitization with ovalbumin (50 mg/kg intraperitoneally) guinea pigs are anesthetized with pentobarbital (70 mg/kg intraperitoneally) and spontaneous respiration is eliminated with succinylcholine (2 mg/kg intra-peritoneally). The trachea is cannulated and respiration is maintained under positive pressure with a minature ventilator (5 ml/breath, 87 breaths/minute, 10 cm water). Bronchoconstrictor responses are represented as increased excursions of the tracing on a physiological recorder of air overflow to the lungs measured by a pneumotachograph in series with a differential pressure transducer. The guinea pigs are pretreated with an antihistamine, for example, chlorpheniramine, and are then dosed orally at a level of about 5 to 40 mg/kg with a suspension of a compound of Formula I of the invention in 4% aqueous acacia. The animals are challenged with ovalbumin (300 »g/kg intravenously) thirty (30) minutes later.

Q: `CC(C)(C)c1cc(C(=O)Nc2cccc(-c3nnn[nH]3)c2)cc(C(C)(C)C)c1O.O` [Example 7, 5-[3-(3,5-di-t-butyl-4-hydroxybenzamido)phenyl]tetrazole hydrate] was tested. Which oral activity did it give?
A: Its oral activity is “good oral activity”.
